Patent US5173498A, “Substituted 3-thia- and 3-oxa-alkylflavones, a process for their preparation, the use thereof, medicaments based on these compounds and intermediates” (Hoechst Aktiengesellschaft, priority 1990, dated 1992)

What was measured:
[1] = tested on: cholesterol biosynthesis in HEP-G2 cells; experiment: Suppression or inhibition of cholesterol biosynthesis in cell cultures of HEP-G2 cells; format: cell-based; settings: Homo sapiens, HepG2, Table II, ^14C-cholesterol formed from ^14C-sodium acetate
Description: Monolayers of HEP-G2 cells in lipoprotein-free nutrient medium were preincubated with corresponding concentrations of the test substances for a certain time (e.g. 1 hour) and after addition of the labeled precursor, for example ^14 C-sodium acetate, the incubation was continued (e.g. 3 hours). After addition of an internal standard (^3 H-cholesterol), a portion of the cells was subjected to alkaline saponification. The lipids in the saponified cells were extracted with chloroform/methanol. After addition of carrier cholesterol, this lipid mixture was separated by preparative thin layer chromatography, the cholesterol band was isolated after rendering visible using iodine vapor and the amount of ^14 C-cholesterol formed from the ^14 C-precursor was determined by scintigraphy. Cell protein was determined in a aliquote portion of the cells, so that the amount of ^14 C-cholesterol formed per unit time per mg of cell protein can be calculated. By comparing this value with the amount of ^14 C-cholesterol which was formed per mg of cell protein and per unit time from a culture which was treated in the same way but free from test substance, the inhibitory effect of the particular test preparation on the cholesterol biosynthesis of HEP-G2 cell cultures was obtained. [drawing 12]
Using the method described above, for example, the following inhibitory values for the cholesterol biosynthesis (in HEP-G2 cells) were determined for the compounds according to the invention (the IC50 value in mole/liter is that concentration of the compound which effects a 50% inhibition of the cholesterol biosynthesis) (Tab. II).

LDL = experiment: Inhibition of Cu^2+-catalyzed LDL oxidation (increase in fluorescence at 430 nm); format: biochemical, pigs; settings: Table I; 50% inhibition of fluorescence increase at 430 nm; 5 μM Cu^2+, 2 hours, 37° C., pH 7.4; LDL 0.1 mg protein/ml
Description: The method for testing the antioxidant action of the substances is based on the inhibition of the Cu^2+ -catalyzed oxidation of LDL by active compounds, the increase in fluorescence at 430 nm serving as a measure of the LDL oxidation (U.P. Steinbrecher, J. Biol. Chem. 262. 3603 (1987)).
Blood from freshly slaughtered pigs, which was collected in the presence of EDTA (1 mg/ml) and NaN3 (0.1 mg/ml) and then centrifuged for 20 min at 2,000×g and 4° C. in order to remove the cellular constituents, was used for isolation of the LDL. Stepwise ultracentrifuging of the plasma in NaCl/NaBr solutions having densities of d=1.019 and d=1.063 yielded the LDL fraction (R. J. Havel, H. A. Eder and J. H. Bragdon, J. Clin. Investig. 34, 1345 (1955)). In this method the samples were centrifuged in a 50.2 Ti fixed angle rotor (Beckman Instruments) in each case for 18 hours at 300,000×g and 17° C. In order to lower the EDTA concentration, the LDL fraction obtained in this way had to be subjected for 48 hours to two dialyses in 100 times the volume of a phosphate-buffered saline solution (160 mM NaCl, 10 mM NaH2 PO4) of pH 7.4 (U. P. Steinbrecher, J. L. Witztum, S. Parthasarathy and D. Steinberg, Arteriosclerosis 7, 135 (1987)).
For the oxidation tests, the LDL fraction, which was stored at 4° C., was diluted to 0.1 mg of protein/ml using the dialysis buffer of the abovementioned composition. 2.5 ml of this LDL solution were treated with 25 μl of ethanolic solution having various concentrations of the test substance and the samples were incubated in closed vessels under nitrogen for 1 hour at 37° C., in order initially to achieve an adequate incorporation of the substance in the LDL particles (L. R. McLean and K. A. Hagaman, Biochemistry 28, 321 (1989)). The maximum concentration of the test compounds was 10 μM in the test.
The oxidation of the LDL was effected by adding 12.5 μl of a 1 mM CuSO4 solution, i.e. 5 μM Cu^2+ in the test, and incubating for two hours at 37° C. in cell culture dishes open to the air. The controls contained 25 μl of pure ethanol. To determine the blank, analogously prepared LDL samples were treated with 12.5 μl of a solution of 1 mM CuSO4 and 40 mM EDTA and likewise incubated for 2 hours at 37° C.
After the end of the incubation, the fluorescence intensity emitted at 430 nm was determined in all samples using the excitation wavelength 365 nm (Perkin-Elmer type LS-3 spectrofluorimeter).
The IC50 values, i.e. those molar concentrations which, under the test conditions described, inhibit the increase in fluorescence by 50% (controls =100), were determined for comparison of the strength of action of the antioxidants. For this purpose the fluorescence measurement was carried out as a duplicate determination using, in each case, 5 to 6 different concentrations of the test substance. Plotting the percentage inhibition values on semi-logarithmic paper and graphic interpolation gave the corresponding IC50 (Table I). Vitamin E was used as comparison compound.

Row | Compound | IC50 [1] [nM] | IC50 (LDL) [nM]
1 | CC(C)=CCC/C(C)=C/CC/C(C)=C/CSCc1c(-c2ccc(F)cc2)oc2cc(O)cc(O)c2c1=O [Example 9l] | 80 | –
2 | CCCCCCCCCCCCSCc1c(-c2ccc(F)cc2)oc2cc(O)cc(O)c2c1=O [Example 9b] | – | 12000
3 | COc1ccc(-c2oc3cc(O)cc(O)c3c(=O)c2CSC/C=C(\C)CC/C=C(\C)CCC=C(C)C)cc1 [Example 9m] | 80 | –
4 | CCCCCCCCCCCCCCCCCCSCc1c(-c2ccc(F)cc2)oc2cc(O)cc(O)c2c1=O [Example 9d] | – | 8000
5 | Vitamin E [reference compound] | – | 4800
6 | C/C(=C\CSCc1c(-c2ccc(O)cc2)oc2cc(O)cc(O)c2c1=O)CCC[C@H](C)CCC[C@H](C)CCCC(C)C [Example 9i] | 9 | 900
7 | C/C(=C\CSCc1c(-c2ccc(F)cc2)oc2cc(O)cc(O)c2c1=O)CCC[C@H](C)CCC[C@H](C)CCCC(C)C [Example 9e] | 10 | 330
